Experimental data reported in patent US9616125B2, “Stable nocathiacin lyophilized injection agent” (priority 2013, dated 2017).

Assays:
[1] = Aqueous solubility of nocathiacin I versus pH (shake 24 h, filtration, HPLC)
Method: Excessive purified material of nocathiacin I is added in test tubes with stopper respectively, and a certain amounts of buffer solutions with pH 2, pH 3, pH 4, pH 5, pH 6 and pH 7 are added to ensure that the solutions are in a supersaturated state all the time, and the solutions are shaken for 24 h under room temperature. Then the solutions are filtered through a 0.22 millipore filter, and the subsequent filtrate is taken and fed in a high performance liquid chromatography to measure the drug contents. The chromatogram conditions are as follows. • Chromatographic column: Waters Symmetry, 150 mm×4.6 mm, 5 μm.
Mobile phase: A. distilled water containing 0.05% TFA; and B. acetonitrile containing 0.05% TFA.
Gradient: Gradient elution for 32 min, 30%-60% B.
Column temperature: 40° C., and rate of flow: 1 ml/min
Detection wavelength: 362 nm, and sample volume: 10 μl.

[2] = tested on: methicillin-resistant staphylococcus aureus (MRSA); conditions: cited from earlier work
[3] = tested on: vancomycin-resistant enterococcus (VRE); conditions: cited from earlier work
[4] = tested on: mycobacterium tuberculosis; conditions: cited from earlier work
[5] = tested on: penicillin-resistant streptococcus pneumoniae (PRSP); conditions: cited from earlier work

Compound: C=C(NC(=O)c1csc(-c2nc3c(cc2O)-c2nc(cs2)C(=O)N[C@@H]([C@@H](C)O)C(=O)N/C(=C(\C)OC)c2nc(cs2)C(=O)N[C@@H]2c4nc(cs4)C(=O)N[C@@H](COC(=O)c4c5c6c(cccc6n4O)COC(=O)[C@@H](O[C@H]4C[C@](C)(O)[C@H](N(C)C)[C@H](C)O4)[C@H]2OC5)c2nc-3cs2)n1)C(N)=O.O=C(O)C(F)(F)F [nocathiacin I]
- concentration of nocathiacin I solution that can be obtained ([1]; pH value of the liquid formulation controlled below 6): more than 0.5 mg/mL
- solubility of nocathiacin I as a function of pH ([1]; within a scope of pH 1-7, FIG. 1): decreases with the increase of pH value

Compound: nocathiacin
- effective concentration [2]: less than 1 μg/ml
- effective concentration [3]: less than 1 μg/ml
- effective concentration [4]: less than 1 μg/ml
- effective concentration [5]: less than 1 μg/ml
